One experiment concerns OPM-2. Put plainly: Assay 2: multiple myeloma cellular efficacy, PrestoBlue cell proliferation/survival. In kind it is cell-based. The conditions noted are these: Homo sapiens, 96 h, OPM-2 cells, 4 days. In outline: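 Cells seeded at 10000/well and exposed to a compound dose range or vehicle for 4 days, then stained with PrestoBlue for 2 h at 37 °C. Fluorescence was background-subtracted and normalized to vehicle; EC50 came from a four-parameter variable-slope fit against log concentration.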

A further experiment deals with A375 cells. Put plainly: Assay 1: A375 cells treated with S1152, S1008 and compound, immunofluorescence (sc-365823) signal. The conditions noted are these: 1 μM S1152 + 0.5 μM S1008, one day. In kind it is cell-based. Summed up: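 A375 cells treated one day with 1 μM S1152, 0.5 μM S1008 and compound dose ranges in DMEM/10% FCS, then fixed, permeabilised and immunostained. Green signal normalised to nuclear counterstain (ethidium-type or DAPI), log ratio fitted by four-parameter regression for EC50.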

A further experiment has as its target T1, CBP Bromodomain (Homo sapiens, UniProt Q92793).
T1 construct: purchased Cayman chemicals 600850
Briefly: Assay 3: CBP bromodomain binding assay (TR-FRET). As for the experimental part:
Assay 3 CBP Bromodomain Binding Assay (TR-FRET)
Compounds solutions of 10 mM in DMSO were pre-diluted in DSMO to 25× stock solutions in DMSO. These were then diluted down to 4× in assay buffer. A dilution series in assay buffer was performed keeping the DMSO concentration stable. 5 μl compound in assay buffer was transferred into the assay plate (provided by assay kit) and the TR-FRET assay Cayman chemicals; 600850) was performed using the manufactor's instructions. After 1 hour incubation at room temperature in the darks, assay plates were read in a Tecan M1000 plate reader or a Tecan Spaks reader using the TR-FRET mode (top read; excitation 340 nm bandwidth […]; emission 620 nm bandwidth […]; gain optimal determined for the first well, number of flashes: 5; flash frequency 100 Hz; integration time: 500 μs, lag time: 100 μs, room temperature). The TR-FRET ratio was calculated by deviding 670 nm emission by 620 nm emission. Values were log transformed and non-linear regression with variable slope (4 parameters) was used to fit values to a dose-response curve to evaluate EC50 values.
Background: Time-resolved FRET reads energy transfer from a long-lived donor to a nearby acceptor.

Bounds are passed on as bounds.

T1 sequence (Q92793 1085-1192 limits assumed): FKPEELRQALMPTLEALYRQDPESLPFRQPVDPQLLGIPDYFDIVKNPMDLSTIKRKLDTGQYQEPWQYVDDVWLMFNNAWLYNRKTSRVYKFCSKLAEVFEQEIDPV

One may read the EC50 as the concentration giving half of the maximal effect. As for `CC(=O)N1C[C@H](c2nc(Nc3ccccc3)cc(-c3cncnc3)n2)CC[C@@H]1C` (racemic) [Compound 00072, (+/−)-cis-1-(2-methyl-5-(6-(phenylamino)-[4,5′-bipyrimidin]-2-yl)piperidin-1-yl)ethan-1-one], the EC50 in the experiment with OPM-2, in the experiment with A375 cells and on CBP Bromodomain was 200 to 1000 nM throughout.

Regarding `CC(=O)N1C[C@H](c2nc(Nc3ccccc3)cc(-c3cncc4[nH]ccc34)n2)CC[C@@H]1C` (racemic) [Compound 00073, (+/−)-c/s-1-(2-methyl-5-(4-(phenylamino)-6-(1H-pyrrolo[2,3-c]pyridin-4-yl)pyrimidin-2-yl)piperidin-1-yl)ethan-1-one], the EC50 with OPM-2, with A375 cells and at CBP Bromodomain was less than 200 nM throughout.

With `CC(=O)N1C[C@H](c2nc(Nc3cncc(C)c3)cc(-c3cccnc3)n2)CC[C@@H]1C` [Compound 00009], the EC50 in the experiment on OPM-2 is 200 to 1000 nM; in the experiment on A375 cells it was less than 200 nM; at CBP Bromodomain it was less than 200 nM.

`CC(=O)N1C[C@H](c2nc(Nc3ccc4[nH]ncc4c3)cc(-c3cccnc3)n2)CC[C@@H]1C` [Compound 00030, 1-((2S,5R)-5-(4-((1H-indazol-5-yl)amino)-6-(pyridin-3-yl)pyrimidin-2-yl)-2-methylpiperidin-1-yl)ethan-1-one]: the half-maximal effective concentration (EC50) in the experiment on A375 cells is less than 200 nM; at CBP Bromodomain it was 200 to 1000 nM.

Turning to `CC(=O)N1C[C@H](c2nc(Nc3cc(F)cc(C(=O)N(C)C)c3)cc(-c3cccnc3)n2)CC[C@@H]1C` [Compound 00038, 3-((2-((3R,6S)-1-acetyl-6-methylpiperidin-3-yl)-6-(pyridin3-yl)pyrimidin-4-yl)amino)-5-fluoro-N,N-dimethylbenzamide], the EC50 in the experiment with A375 cells and on CBP Bromodomain was 200 to 1000 nM throughout.

For `CC(=O)N1C[C@H](c2nc(Nc3cccc(C(F)F)c3)cc(-c3cccnc3)n2)CC[C@@H]1C` [Compound 00039, 1-((2S,5R)-5-(4-((3-(difluoromethyl)phenyl)amino)-6-(pyridin-3-yl)pyrimidin-2-yl)-2-methylpiperidin-1-yl)ethan1-one], the concentration giving a half-maximal response (EC50) in the experiment on OPM-2 is less than 200 nM; with A375 cells, less than 200 nM; on CBP Bromodomain it was 200 to 1000 nM.

In the case of `CC(=O)N1C[C@H](c2nc(Nc3cc(F)c4cn[nH]c4c3)cc(-c3cccnc3)n2)CC[C@@H]1C` [Compound 00040, 1-((2S,5R)-5-(4-((4-fluoro-1H-indazol-6-yl)amino)-6-(pyridin-3-yl)pyrimidin-2-yl)-2-methylpiperidin-1-yl)ethan-1-one], the EC50 in the experiment with A375 cells and at CBP Bromodomain was less than 200 nM throughout.

As for `CNC(=O)c1cc(F)cc(Nc2cc(-c3cccnc3)nc([C@@H]3CC[C@H](C)N(C(C)=O)C3)n2)c1` [Compound 00041, 3-((2-((3R,6S)-1-acetyl-6-methylpiperidin-3-yl)-6-(pyridin-3-yl)pyrimidin-4-yl)amino)-5-fluoro-N-methylbenzamide], the EC50 in the experiment on OPM-2, with A375 cells and on CBP Bromodomain was less than 200 nM in each case.

Take `CC(=O)N1C[C@H](c2nc(Nc3cccc4[nH]ncc34)cc(-c3cccnc3)n2)CC[C@@H]1C` [Compound 00042, 1-((2S,5R)-5-(4-((1H-indazol-4-yl)amino)-6-(pyridin-3-yl)pyrimidin-2-yl)-2-methylpiperidin-1-yl)ethan-1-one]: the EC50 in the experiment with A375 cells is less than 200 nM; at CBP Bromodomain, 200 to 1000 nM.

Turning to `CC(=O)N1C[C@H](c2nc(Nc3cc(F)cc(-c4cnn(C)c4)c3)cc(-c3cccnc3)n2)CC[C@@H]1C` [Compound 00043, 1-((2S,5R)-5-(4-((3-fluoro-5-(1-methyl-1H-pyrazol-4-yl)phenyl)amino)-6-(pyridin-3-yl)pyrimidin-2-yl)-2-methylpiperidin-1-yl)ethan-1-one], the EC50 in the experiment on A375 cells and at CBP Bromodomain was less than 200 nM each time.

Take `CC(=O)N1C[C@H](c2nc(Nc3cccc(-c4cnn(C)c4)c3)cc(-c3cccnc3)n2)CC[C@@H]1C` [Compound 00044, 1-((2S,5R)-2-methyl-5-(4-((3-(1-methyl-1H-pyrazol-4-yl)phenyl)amino)-6-(pyridin-3-yl)pyrimidin-2-yl)piperidin-1-yl)ethan-1-one]: the EC50 with OPM-2, with A375 cells and at CBP Bromodomain was less than 200 nM each time.

For the molecule `CC(=O)N1C[C@H](c2nc(Nc3cccc4nn(C)cc34)cc(-c3cccnc3)n2)CC[C@@H]1C` [Compound 00045, 1-((2S,5R)-2-methyl-5-(4-((2-methyl-2H-indazol-4-yl)amino)-6-(pyridin-3-yl)pyrimidin-2-yl)piperidin-1-yl)ethan-1-one], the concentration giving a half-maximal response (EC50) in the experiment on OPM-2 was 200 to 1000 nM; with A375 cells, less than 200 nM; on CBP Bromodomain it was less than 200 nM.

With `CC(=O)N1C[C@H](c2nc(Nc3cc(F)cc(-c4cnoc4)c3)cc(-c3cccnc3)n2)CC[C@@H]1C` [Compound 00046, 1-((2S,5R)-5-(4-((3-fluoro-5-(isoxazol-4-yl)phenyl)amino)-6-(pyridin-3-yl)pyrimidin-2-yl)-2-methylpiperidin-1-yl)ethan-1-one], the EC50 with A375 cells and on CBP Bromodomain was less than 200 nM throughout.

Regarding `CC(=O)N1C[C@H](c2nc(Nc3cccc(-c4cn(C)nn4)c3)cc(-c3cccnc3)n2)CC[C@@H]1C` [Compound 00053, 1-((2S,5R)-2-methyl-5-(4-((3-(1-methyl-1H-1,2,3-triazol-4-yl)phenyl)amino)-6-(pyridin-3-yl)pyrimidin-2-yl)piperidin-1-yl)ethan-1-one], the EC50 in the experiment with OPM-2 was less than 200 nM; in the experiment on A375 cells, less than 200 nM; on CBP Bromodomain, 1000 to 10000 nM.

With `CC(=O)N1C[C@H](c2nc(Nc3cccc(-c4cnn(C)c4)c3)cc(-c3cnccn3)n2)CC[C@@H]1C` [Compound 00065, 1-((2S,5R)-2-methyl-5-(4-((3-(1-methyl-1H-pyrazol-4-yl)phenyl)amino)-6-(pyrazin-2-yl)pyrimidin-2-yl)piperidin-1-yl)ethan-1-one], the EC50 with OPM-2, in the experiment with A375 cells and at CBP Bromodomain was less than 200 nM in each case.

With `CC(=O)N1C[C@H](c2nc(Nc3cc(F)cc(-c4cnn(C)c4)c3)cc(-c3cnccn3)n2)CC[C@@H]1C` [Compound 00066, 1-((2S,5R)-5-(4-((3-fluoro-5-(1-methyl-1H-pyrazol-4-yl)phenyl)amino)-6-(pyrazin-2-yl)pyrimidin-2-yl)-2-methylpiperidin-1-yl)ethan-1-one], the EC50 is less than 200 nM in the experiment on OPM-2, less than 200 nM with A375 cells and 1000 to 10000 nM on CBP Bromodomain.

For the molecule `CC(=O)N1C[C@H](c2nc(Nc3cc(F)cc(-c4cn(C)nn4)c3)cc(-c3cnccn3)n2)CC[C@@H]1C` [Compound 00069, 1-((2S,5R)-5-(4-((3-fluoro-5-(1-methyl-1H-1,2,3-triazol-4-yl)phenyl)amino)-6-(pyrazin-2-yl)pyrimidin-2-yl)-2-methylpiperidin-1-yl)ethan-1-one], the concentration for a half-maximal effect (EC50) with OPM-2, in the experiment on A375 cells and on CBP Bromodomain was less than 200 nM in each case.

With `CC(=O)N1C[C@H](c2nc(Nc3cccc(-c4cn(C)nn4)c3)cc(-c3cncc4c3ccn4C)n2)CC[C@@H]1C` [Compound 00086, 1-((2S,5R)-2-methyl-5-(4-((3-(1-methyl-1H-1,2,3-triazol-4-yl)phenyl)amino)-6-(1-methyl-1H-pyrrolo[2,3-c]pyridin-4-yl)pyrimidin-2-yl)piperidin-1-yl)ethan-1-one], the EC50 in the experiment with OPM-2, in the experiment with A375 cells and at CBP Bromodomain was less than 200 nM in each case.

Take `CC(=O)Nc1cc(F)cc(Nc2cc(-c3cncc4c3ccn4C)nc([C@@H]3CC[C@H](C)N(C(C)=O)C3)n2)c1` [Compound 00092, N-(3-((2-((3R,6S)-1-acetyl-6-methylpiperidin-3-yl)-6-(1-methyl-1H-pyrrolo[2,3-c]pyridin-4-yl)pyrimidin-4-yl)amino)-5-fluorophenyl)acetamide]: the EC50 in the experiment on OPM-2, in the experiment on A375 cells and on CBP Bromodomain was less than 200 nM throughout.

Turning to `CC(=O)N1C[C@H](c2nc(Nc3ccnc(C)c3)cc(-c3cncc(C)c3)n2)CC[C@@H]1C` [Compound 00103, 1-((2S,5R)-2-methyl-5-(4-(5-methylpyridin-3-yl)-6-((2-methylpyridin-4-yl)amino)pyrimidin-2-yl)piperidin-1-yl)ethan-1-one], the concentration giving a half-maximal response (EC50) with OPM-2, in the experiment with A375 cells and on CBP Bromodomain was less than 200 nM in each case.

As for `CC(=O)N1C[C@H](c2nc(Nc3ccccc3)cc(-n3cnc(C)c3)n2)CC[C@@H]1C` [Compound 00163, 1-((2S,5R)-2-methyl-5-(4-(4-methyl-1H-imidazol-1-yl)-6-(phenylamino)pyrimidin-2-yl)piperidin-1-yl)ethan-1-one], the EC50 in the experiment on A375 cells and on CBP Bromodomain was 1000 to 10000 nM throughout.

Regarding `C[C@H]1CC[C@@H](c2nc(Nc3cccc(F)c3)cc(-c3cccnc3)n2)CN1C(N)=O` [Compound 00165, (2S,5R)-5-(4-((3-fluorophenyl)amino)-6-(pyridin-3-yl)pyrimidin-2-yl)-2-methylpiperidine-1-carboxamide], the 50% effective concentration (EC50) in the experiment on A375 cells and at CBP Bromodomain was 1000 to 10000 nM throughout.

The values above are taken from patent publication US12478624B2, “Heterocyclic derivatives, pharmaceutical compositions and their use in the treatment or amelioration of cancer” (Tolremo Therapeutics AG, priority 2019, dated 2025).
